Usually EC50 stands for the concentration giving half of the maximal effect.

Inhibition of growth and EC50 data for 40 compounds are collected here from patent US20210206744A1, “BENZIMIDAZOLE COMPOUNDS AS AGRICULTURAL CHEMICALS” (REDAG CROP PROTECTION LTD, priority 2017, published 2021).

In one assay the test system is Pythium ultimum. In words: Amended agar assay. The conditions noted are these: Globisporangium ultimum; potato dextrose agar amended with compound at 2 ppm, 18° C., 2 to 7 days; read-out: % control Pythium ultimum (% reduction in colony growth compared to the control plate). Format: cell-based. How it is done: Amended Agar Assay Testing was carried out on potato dextrose agar (PDA) amended with each compound at a test concentration of 2 ppm. Amended agar was poured into three replicate 9 cm petri dishes. Each replicate dish was inoculated in the centre with a 5 mm agar plug taken from the leading edge of a culture aged between 2 and 7 days old; the age of the culture was dependent on the growth rate of the pathogen being tested. The test pathogen was Pythium ultimum. Plates were incubated at 18° C. and the diameter of each colony measured before growth on the fastest growing plate reached the plate edge. This varied between 2 and 7 days depending on the growth rate of test pathogens. The % reduction in colony growth compared to the control plate was calculated. The results are provided in Table 1, in which D represents no control detected at this concentration; C represents up to 50% control; B from 50 to 99% control; and A represents a control of greater than 99%, i.e. no detectable colony growth.

A further assay relates to Phytophthora cactorum. In words: 96 well plate test. Format: cell-based. The conditions noted are these: Phytophthora cactorum; agar amended to 2, 0.2, 0.02 and 0.002 ppm, 18° C., assessed after 2 to 3 days. On the procedure: Compounds were screened in 96 well plates with 10 compounds per plate. Each compound was screened using agar amended to 2, 0.2, 0.02 and 0.002 ppm, with proline at 50 and 10 ppm and 0.2% DMSO used as controls. Each test concentration and standard was replicated twice on a plate. Compounds were screened against Phytophthora cactorum. The agar used in the test is a 1% potato dextrose agar. 1000 spores/mL agar were added to the appropriate agar.
A ×10 stock solution in 2% DMSO was produced for each dose i.e. 20, 2, 0.2 and 0.02 ppm, and 10 μl of this added to the appropriate wells on the plate. An equivalent amount of 2% DMSO and proline stock at 500 and 100 ppm were added for the controls. To each well 90 μl of the appropriate agar spore suspension was added to give the required final well concentrations. Plates were incubated at room temperature (18° C.) and assessed after 2 to 3 days. The amount of pathogen growth in each well was compared to the DMSO controls and an EC50 concentration was calculated. The results are provided in Table 1 in which G represents no control detected at 2 ppm, F represents an EC50 of ≥2 ppm, and E represents an EC50 of less than 2 ppm.

In the case of `Cn1nnnc1-n1c(OCc2cccc(NC(=O)C3CC3)n2)nc2c(Cl)cccc21` [Compound 1, N-(6-(((4-Chloro-1-(1-methyl-1H-tetrazol-5-yl)-1H-benzo[d]imidazol-2-yl)oxy)methyl)pyridin-2-yl)cyclopropanecarboxamide], the inhibition of growth at 2 ppm with Pythium ultimum was > 99%. The EC50 in the assay on Phytophthora cactorum was < 2 µg/mL.
As to `Cn1nnnc1-n1c(OCc2cccc(NC(=O)COc3ccccc3)n2)nc2c(Cl)cccc21` [Compound 2], the inhibition of growth at 2 ppm in the assay on Pythium ultimum is > 99%. Besides, in the assay on Phytophthora cactorum, the EC50 was < 2 µg/mL.
The like results for `Cn1nnnc1-n1c(OCc2cccc(NC(=O)OC(C)(C)C)n2)nc2c(Cl)cccc21` [Compound 3] were, in that order, > 99% and < 2 µg/mL.
The matching figures for `COc1cc(F)cc2c1nc(OCc1cccc(NC(=O)OC(C)(C)C)n1)n2-c1nnnn1C` [Compound 4]: > 99% and < 2 µg/mL.
For `COc1cc(F)cc2c1nc(OCc1cccc(NC(=O)COc3ccccc3)n1)n2-c1nnnn1C` [Compound 5], the inhibition of growth at 2 ppm in the assay on Pythium ultimum is > 99%. Besides, in the assay with Phytophthora cactorum, the EC50 was < 2 µg/mL.
On to `COc1cc(F)cc2c1nc(OCc1cccc(NC(=O)C3CC3)n1)n2-c1nnnn1C` [Compound 6], for which, in the assay with Pythium ultimum, the inhibition of growth at 2 ppm was 50 to 99%. Moreover, in the assay with Phytophthora cactorum, the EC50 is ≥ 2 µg/mL.
`C=CCOc1cccc2c1nc(OCc1cccc(NC(=O)OC(C)(C)C)n1)n2-c1nnnn1C` [Compound 7, tert-butyl (6-(((4-(allyloxy)-1-(1-methyl-1H-tetrazol-5-yl)-1H-benzo[d]imidazol-2-yl)oxy)methyl)pyridin-2-yl)carbamate]: in the assay on Pythium ultimum, the inhibition of growth at 2 ppm is > 99%. Moreover, in the assay with Phytophthora cactorum, the EC50 was < 2 µg/mL.
The like results for `COc1cccc2c1nc(OCc1cccc(NC(=O)OC(C)(C)C)n1)n2-c1nnnn1C` [Compound 8] were, in that order, > 99% and < 2 µg/mL.
The matching figures for `CC(C)CCC(=O)Nc1cccc(COc2nc3c(Cl)cccc3n2-c2nnnn2C)n1` [Compound 9]: > 99% and < 2 µg/mL.
As for `Cn1nnnc1-n1c(OCc2cccc(NC(=O)C3CCCC3)n2)nc2c(Cl)cccc21` [Compound 10], the inhibition of growth at 2 ppm with Pythium ultimum was > 99%. Also, in the assay with Phytophthora cactorum, the EC50 is < 2 µg/mL.
For `C=CCOC(=O)Nc1cccc(COc2nc3c(Cl)cccc3n2-c2nnnn2C)n1` [Compound 11], the inhibition of growth at 2 ppm in the assay on Pythium ultimum was > 99%. In addition, in the assay with Phytophthora cactorum, the EC50 was < 2 µg/mL.
The like results for `CCCC(=O)Nc1cccc(COc2nc3c(Cl)cccc3n2-c2nnnn2C)n1` [Compound 12] were, in that order, > 99% and < 2 µg/mL.
The like results for `CCCCOC(=O)Nc1cccc(COc2nc3c(Cl)cccc3n2-c2nnnn2C)n1` [Compound 13] were, in that order, > 99% and < 2 µg/mL.
The like results for `CCOC(=O)Nc1cccc(COc2nc3c(Cl)cccc3n2-c2nnnn2C)n1` [Compound 14] were, in that order, > 99% and ≥ 2 µg/mL.
Regarding `CC(C)COC(=O)Nc1cccc(COc2nc3c(Cl)cccc3n2-c2nnnn2C)n1` [Compound 15], the inhibition of growth at 2 ppm with Pythium ultimum was > 99%. Besides, in the assay with Phytophthora cactorum, the EC50 is < 2 µg/mL.
The matching figures for `CCCOC(=O)Nc1cccc(COc2nc3c(Cl)cccc3n2-c2nnnn2C)n1` [Compound 16]: > 99% and < 2 µg/mL.
The like results for `Cn1nnnc1-n1c(OCc2cccc(NC(=O)OC3CCCC3)n2)nc2c(Cl)cccc21` [Compound 17] were, in that order, > 99% and < 2 µg/mL.
The matching figures for `CC(C)OC(=O)Nc1cccc(COc2nc3c(Cl)cccc3n2-c2nnnn2C)n1` [Compound 18]: > 99% and ≥ 2 µg/mL.
Regarding `Cn1nnnc1-n1c(OCc2cccc(NC(=O)C(C)(C)C)n2)nc2c(Cl)cccc21` [Compound 19], the inhibition of growth at 2 ppm in the assay on Pythium ultimum was > 99%. In the assay with Phytophthora cactorum, the EC50 is < 2 µg/mL.
The matching figures for `Cc1cccc2c1nc(OCc1cccc(NC(=O)COc3ccccc3)n1)n2-c1nnnn1C` [Compound 20]: > 99% and < 2 µg/mL.
In the case of `Cc1cccc2c1nc(OCc1cccc(NC(=O)OC(C)(C)C)n1)n2-c1nnnn1C` [Compound 21], the inhibition of growth at 2 ppm in the assay with Pythium ultimum is > 99%. Besides, the EC50 in the assay with Phytophthora cactorum is < 2 µg/mL.
The like results for `Cn1nnnc1-n1c(OCc2cccc(NC(=O)OC(C)(C)C)n2)nc2c(O)cccc21` [Compound 22, tert-Butyl (6-(((4-hydroxy-1-(1-methyl-1H-tetrazol-5-yl)-1H-benzo[d]imidazol-2-yl)oxy)methyl)pyridin-2-yl)carbamate] were, in that order, 50 to 99% and ≥ 2 µg/mL.
In the case of `CCC(=O)Nc1cccc(COc2nc3c(Cl)cccc3n2-c2nnnn2C)n1` [Compound 23, N-(6-(((4-Chloro-1-(1-methyl-1H-tetrazol-5-yl)-1H-benzo[d]imidazol-2-yl)oxy)methyl)pyridin-2-yl)propionamide], in the assay on Pythium ultimum, the inhibition of growth at 2 ppm is > 99%. Besides, the EC50 in the assay with Phytophthora cactorum was ≥ 2 µg/mL.
The matching figures for `CC(C)C(=O)Nc1cccc(COc2nc3c(Cl)cccc3n2-c2nnnn2C)n1` [Compound 24]: > 99% and < 2 µg/mL.
As to `CCCCC(=O)Nc1cccc(COc2nc3c(Cl)cccc3n2-c2nnnn2C)n1` [Compound 25], the inhibition of growth at 2 ppm in the assay on Pythium ultimum is > 99%. Besides, the EC50 in the assay on Phytophthora cactorum is < 2 µg/mL.
On to `CC(C)CC(=O)Nc1cccc(COc2nc3c(Cl)cccc3n2-c2nnnn2C)n1` [Compound 26], for which the inhibition of growth at 2 ppm with Pythium ultimum is > 99%. The EC50 with Phytophthora cactorum is < 2 µg/mL.
In the case of `CCC(CC)C(=O)Nc1cccc(COc2nc3c(Cl)cccc3n2-c2nnnn2C)n1` [Compound 27], in the assay on Pythium ultimum, the inhibition of growth at 2 ppm is > 99%. For the same compound, in the assay on Phytophthora cactorum, the EC50 is < 2 µg/mL.
The matching figures for `CC(=O)Nc1cccc(COc2nc3c(Cl)cccc3n2-c2nnnn2C)n1` [Compound 28]: 50 to 99% and ≥ 2 µg/mL.
On to `Cn1nnnc1-n1c(OCc2cccc(NC(=O)C(F)(F)F)n2)nc2c(Cl)cccc21` [Compound 29], for which the inhibition of growth at 2 ppm in the assay with Pythium ultimum was > 99%. Besides, in the assay on Phytophthora cactorum, the 50% effective concentration (EC50) is < 2 µg/mL.
The like results for `Cn1nnnc1-n1c(OCc2cccc(NC(=O)CC(F)(F)F)n2)nc2c(Cl)cccc21` [Compound 30] were, in that order, > 99% and < 2 µg/mL.
The matching figures for `Cn1nnnc1-n1c(OCc2cccc(NC(=O)c3ccccc3)n2)nc2c(Cl)cccc21` [Compound 31]: > 99% and < 2 µg/mL.
Turning to `Cn1nnnc1-n1c(OCc2cccc(NC(=O)C3CCC3)n2)nc2c(Cl)cccc21` [Compound 32], the inhibition of growth at 2 ppm with Pythium ultimum was > 99%. For the same compound, the EC50 in the assay on Phytophthora cactorum was < 2 µg/mL.
As to `Cn1nnnc1-n1c(OCc2cccc(NC(=O)CC(C)(C)C)n2)nc2c(Cl)cccc21` [Compound 33], the inhibition of growth at 2 ppm in the assay on Pythium ultimum was > 99%. Also, the EC50 in the assay with Phytophthora cactorum is < 2 µg/mL.
The like results for `Cn1nnnc1-n1c(OCc2cccc(NC(=O)OC(C)(C)C)n2)nc2c(Br)cccc21` [Compound 34, tert-Butyl (6-(((4-bromo-1-(1-methyl-1H-tetrazol-5-yl)-1H-benzo[d]imidazol-2-yl)oxy)methyl)pyridin-2-yl)carbamate] were, in that order, > 99% and < 2 µg/mL.
As to `CCCCOC(=O)Nc1cccc(COc2nc3c(Br)cccc3n2-c2nnnn2C)n1` [Compound 35], the inhibition of growth at 2 ppm in the assay on Pythium ultimum is > 99%. In addition, the EC50 in the assay on Phytophthora cactorum is < 2 µg/mL.
The matching figures for `Cn1nnnc1-n1c(OCc2cccc(NC(=O)COc3ccccc3)n2)nc2c(Br)cccc21` [Compound 36]: > 99% and < 2 µg/mL.
In the case of `Cn1nnnc1-n1c(OCc2cccc(NC(=O)C3CCCC3)n2)nc2c(Br)cccc21` [Compound 37], the inhibition of growth at 2 ppm in the assay on Pythium ultimum was > 99%. The EC50 in the assay with Phytophthora cactorum was < 2 µg/mL.
`CC(C)COC(=O)Nc1cccc(COc2nc3c(Br)cccc3n2-c2nnnn2C)n1` [Compound 38]: the inhibition of growth at 2 ppm in the assay on Pythium ultimum was > 99%. Moreover, in the assay with Phytophthora cactorum, the EC50 was < 2 µg/mL.
On to `CCCOC(=O)Nc1cccc(COc2nc3c(Br)cccc3n2-c2nnnn2C)n1` [Compound 39], for which the inhibition of growth at 2 ppm in the assay with Pythium ultimum was > 99%. In addition, the concentration giving a half-maximal response (EC50) in the assay on Phytophthora cactorum is < 2 µg/mL.
Take `Cn1nnnc1-n1c(OCc2cccc(NC(=O)OC3CCCC3)n2)nc2c(Br)cccc21` [Compound 40]: the inhibition of growth at 2 ppm in the assay with Pythium ultimum is > 99%. In the assay on Phytophthora cactorum, the EC50 is < 2 µg/mL.
